Experimental data reported in publication PMC9133069, “In vitro proliferation and long-term preservation of functional primary rat hepatocytes in cell fibers” (Scientific Reports, 2022).

Key:
Assay type in all cases: cell-based
[1] = system: primary rat hepatocytes; test: Hepatotoxicity assessment, cell viability (trypan blue exclusion) after 24 h compound treatment; settings: Hepatocyte, 24 h treatment
Protocol: (§1) To explore the possible application of cell fibers encapsulating primary hepatocytes in the field of drug screening, we evaluated the potential of cell fibers for in vitro detection of hepatotoxicity of drugs. […] First, primary rat hepatocytes were encapsulated into core–shell hydrogel microfibers at the initial cell seeding density of 2.5 × 10^7 cells mL^−1 and were cultured in the media supplemented with 3T3CM. Secondly, the concentration-reaction curves for these compounds were obtained through the assays of cellular viability, albumin secretion, and urea synthesis performed at different time points: 4 days, 7 days, 14 days, and 30 days after the start of culture. Thirdly, based upon these concentration-reaction curves (Figs. S4–S7), the corresponding IC50 values were estimated. Moreover, we attempted to compare these IC50 values with those obtained using another culture system where primary rat hepatocytes were cultured on collagen-coated 24-well plates.
(§2) Primary rat hepatocytes cultured either in cell fibers or in collagen-coated 24-well plates were treated for 24 h with either of these compounds diluted in media at intended concentrations, and then the respective compound-treated hepatocytes underwent assays of their different specific characteristics: cell viability, albumin secretion, or urea synthesis. Data from drug-treated hepatocytes were normalized to the respective untreated controls in the same culture system. By plotting these normalized data on y-axis and the concentrations of compounds on x-axis, the concentration-reaction curves were generated.
(§3) Culture of primary rat hepatocytes in cell fibers
(§4) After formation of core-shell hydrogel microfibers encapsulating primary rat hepatocytes, they were incubated at 37 °C for more than 15 minutes to set the ECM proteins at the core region into gels. Subsequently, primary rat hepatocytes in cell fibers were cultured in DMEM supplemented with 1% Glutamax, 10% heat-inactivated FBS, 100 IU mL-1 penicillin, 100 mg mL-1 streptomycin, insulin, 6.25 mg mL-1 transferrin, 6.25 ng mL-1 selenous acid (Lonza, Tokyo, Japan), and 1mM HEPES at 37 °C under a water saturated 5% CO2 environment; this medium is the one that have been optimized to […]
(§5) were performed every 48 hours. […]
(§6) Culture of primary rat hepatocytes using collagen-coated 24-well plates 5x10^5 primary rat hepatocytes freshly isolated were seeded on collagen-coated 24-well plates (Corning Japan K.K, Tokyo, Japan). The primary rat hepatocytes were first cultured in Dulbecco’s Modified Eagle’s Medium (DMEM; Gibco, Tokyo, Japan) supplemented with 1% Glutamax (Life Technologies, Tokyo, Japan), 10% heat-inactivated foetal bovine serum (Equitech-Bio, Kerrville, TX), 100 IU mL-1 penicillin (Gibco), 100 mg mL-1 streptomycin (Gibco), and 1mM HEPES (Sigma Aldrich, Japan)

[2] = system: primary rat hepatocytes; test: Hepatotoxicity assessment, albumin secretion (ELISA) after 24 h compound treatment; settings: Hepatocyte, 24 h treatment
Protocol: as §1
(§7) The amount of albumin in culture medium was measured using an enzyme-linked immunosorbent assay kit (rat albumin ELISA kit, Bethyl Laboratories, Montgomery, TX). The amount of urea in culture medium was measured using an assay kit (QuantiChrom urea assay kit, BioAssay Systems, Hayward, CA). For both assays, respective absorbency at 450 nm or at 430 nm was measured using a microplate reader (MTP-810, Corona Electric, and Hitachi, Japan). All the values were normalized by the number of hepatocytes and the data were expressed as protein amount 10^–6 cells time^−1.
as §2, §3, §4, §5
as §6, with “Aldrich, Japan) at 37 °C under a water saturated 5% CO2 environment. […]” for “Aldrich, Japan)”

[3] = system: primary rat hepatocytes; test: Hepatotoxicity assessment, urea synthesis after 24 h compound treatment; settings: Hepatocyte, 24 h treatment
Protocol: as §1, §7, §2, §3, §4, §5
as §6, with “Aldrich, Japan) at 37 °C under a water saturated 5% CO2 environment. Three hours after the beginning of culture, media were changed and the primary rat hepatocytes started to be cultured in William’s medium E (Life Technologies) supplemented with 1% Glutamax, 100 IU mL-” for “Aldrich, Japan)”

[4] = system: primary rat hepatocytes; test: Assessment of hepatocyte proliferation inhibition in cell fibers
Source text: Practically, core–shell hydrogel microfibers were fabricated to encapsulate primary rat hepatocytes at the initial cell seeding density of 2.5 × 10^7 cells mL^−1.
For that, we first fabricated cell fibers encapsulating primary rat hepatocytes at the initial cell seeding density of 2.5 × 10^7 cells mL^−1. […] Subsequently, we compared these two groups over time by analyzing their morphology and cell number.
Counting primary rat hepatocytes and evaluating their viability per cell fiber were performed three times and averaged. Prior to those procedures, the alginate shells were removed, and the primary rat hepatocytes were retrieved. To remove the shells of the cell fibers, 4 mg mL^−1 of alginate lyase (Sigma Aldrich) in Dulbecco's Phosphate-Buffered Saline (DPBS) (+) was added at a 1:100 ratio to the culture media, and the media were incubated for 15 min. To retrieve primary rat hepatocytes from ECM, 4 mg mL^−1 of collagenase (Sigma-Aldrich) in DPBS (+) was added at a 1:50 ratio to the culture media and the media were incubated for 5 min. The cell number of primary rat hepatocytes per cell fiber was counted by using cell-counting plate (WakenBtech, Japan). The cellular viabilities were examined by the trypan blue dye-exclusion test.
Then immediately, this working solution was diluted in media at intended concentrations. The changeover between starting and stopping exposure to retrorsine was done by medium replacement; the culture media surrounding the cell fibers can be completely removed from petri dishes to be replaced with new ones while keeping the cell fibers intact. The proliferation rate of the hepatocytes in the experimental groups was calculated by dividing the numbers of the hepatocytes that proliferated from 2 days of culture to 3 days of culture in the experimental groups with the ones in the control group.

[5] = cell fibers (core–shell hydrogel microfibres), culture duration 4 days
[6] = cell fibers (core–shell hydrogel microfibres), culture duration 7 days
[7] = cell fibers (core–shell hydrogel microfibres), culture duration 14 days
[8] = cell fibers (core–shell hydrogel microfibres), culture duration 30 days
[9] = collagen-coated 24-well plates, culture duration 4 days

Molecule | IC50 [1, 5] [mM] | IC50 [1, 6] [mM] | IC50 [1, 7] [mM] | IC50 [1, 8] [mM] | IC50 [1, 9] [mM] | IC50 [2, 5] [mM] | IC50 [2, 6] [mM] | IC50 [2, 7] [mM] | IC50 [2, 8] [mM] | IC50 [2, 9] [mM] | IC50 [3, 5] [mM] | IC50 [3, 6] [mM] | IC50 [3, 7] [mM] | IC50 [3, 8] [mM] | IC50 [3, 9] [mM] | number of the cells in cell fibers during exposure ([4]; 10 mg mL^−1, 24 h from day 2 to day 3 of culture, media containing 3T3CM) | IC50 value, inhibition of primary rat hepatocyte proliferation ([4]; cell fibers with 3T3CM, 24 h exposure after 2 days of culture) [µg/mL] | IC50 ([4]; cell fibers with 3T3CM, 24 h exposure after 2 days of culture, converted from mg mL^−1) [mM]
CC(=O)Nc1ccc(O)cc1 [Acetaminophen] | 18.3 | 18.6 | 18.9 | 18.9 | 19.3 | 16.7 | 16.4 | 16.3 | 15.9 | 8.51 ± 0.089 | 17 | 15.9 | 15.9 | 17.3 | 24 |  |  | 
retrorsine |  |  |  |  |  |  |  |  |  |  |  |  |  |  |  | did not change | 3100 ± 100 | ~8.82
O=C(O)Cc1ccccc1Nc1c(Cl)cccc1Cl [Diclofenac] |  |  |  |  | 0.472 ± 0.098 |  |  |  |  |  |  |  |  |  | 0.385 ± 0.041 |  |  | 
